The values that follow come from US20240065988A1, “COMBINED USE OF KETAMINE AND RETIGABINE (EZOGABINE) FOR THE TREATMENT OF PSYCHIATRIC DISORDERS” (Yeda Research and Development Co. Ltd., priority 2021, published 2024).

Structures are written as SMILES. Entries after “also recorded” stand apart in the source; their conditions may differ.

One test has as its system CD-1 mice. Nature of the test: Social Box (SB) behavioral response, ketamine response score P-KET (PLS-DA). It is filed as in vivo, mouse.
Another test concerns Kcnq2 mRNA. The test is described as follows: Kcnq2 mRNA (qPCR) in the vHipp of CSDS mice, FACS-sorted cells and bulk. Particulars: ketamine vs saline. (Real-time PCR tracks product formation cycle by cycle.)
Test [1] concerns primary hippocampal neurons. Nature of the test: qPCR mRNA expression in primary hippocampal neurons treated with ketamine or HNKet. The settings on record: 10 μM. Format: cell-based, mouse. On the procedure:
Primary hippocampal neurons were generated from E16.5 embryos using a standard primary neuron cell culture protocol previously described [K. G. Schraut et al., Eur JNeurosci (2021) 53: 390-401]. Briefly, dissected hippocampi were harvested in ice-cold dissection medium (HBSS, 7 mM HEPES, 2 mM L-glutamine, 500 U/ml penicillin-streptomycin, all Thermo Fisher Scientific). The tissue was incubated for 10 minutes in 0.25% Trypsin-EDTA with 8 mM HEPES (Thermo Fisher Scientific) in a water bath at 37° C. Tissue was washed three times with serum medium (DMEM, 10% FBS, Thermo Fisher Scientific). The cells were dissociated by titration using glass Pasteur pipets 10 in serum medium and filtered with a 70 tm cell strainer (Corning). Cell culture plates were coated overnight with 0.05 mg/ml poly-D-lysine mol wt 70,000-150,000 (Sigma Aldrich) in 0.15 M borate buffer (pH=8.5). Cells were seeded in 24-well plates at a density of 5×10^4 cells in 1 ml growth medium (Neurobasal A medium, 1 x B27 supplement, 0.25×GlutaMAX, all Thermo Fisher Scientific) per well. All cultures were kept in a humidified incubator at 37° C. and 5% CO2. Growth medium was renewed after 7 days of culture. For all experiments, mature twenty-one-day old primary neuronal cultures were used.
Primary hippocampal neurons were generated from E16.5 embryos and cultured for 21 days, as described above (see Primary Cell Culture). For experiment 1 (FIGS. 3A-K), neurons were treated with a saline solution, (R,S)-ketamine (10 μM) (Ketaset, Zoetis, Germany) or (2R,6R)-HNKet (10 μM) (Sigma, Cat #SML1873-25MG) for 0, 2, 12, 24 or 48 hours and compared to untreated controls. For experiment 2 (FIGS. 6A-D), neurons were stimulated with either a saline solution, (2R,6R)-HNKet (10 μM), or a combination of (2R,6R)-HNKet (10 μM) plus nifedipine (10 μM) (Tocris Bioscience, Cat #1075), W-7 hydrochloride (10 μM) (Tocris, Cat #0369), or cyclosporine-A (1 μM) (Tocris, Cat #1101) for 30 minutes, 1, 2, or 6 hours, and compared to untreated controls.
Ketamine treatment regulates Kcnq2 in primary hippocampal neurons To corroborate the previous findings in glutamatergic neurons, it was next examined whether treatment of primary hippocampal neurons with either (R,S)-ketamine or its active metabolite, (2R,6R)-hydroxynorketamine (HNKet), could modify the mRNA expression of the 8 genes tested earlier in glutamatergic neurons. Mouse primary hippocampal neurons are mostly made up of glutamatergic neurons and therefore make a very good model system to further validate the previous in vivo findings. […]

In the case of `CNC1(c2ccccc2Cl)CCCCC1=O` (racemic) [ketamine, (R,S)-ketamine], the “response to ketamine (P-KET) in the SB vs saline” value in the test on CD-1 mice (ketamine 10 mg/kg) is given as “significant difference”. The “SB behavioral readouts (PLSDA classifier)” value in the test with CD-1 mice (ketamine 10 mg/kg/BW i.p.) is “spent more time exploring in an open area of the SB arena; also recorded: more social and anxiolytic behaviors”. The “Kcnq2 mRNA expression” value is reported as “no significant increase of Kcnq2 mRNA” in the test with Kcnq2 mRNA (bulk mRNA); “significantly increased to baseline levels” in the test with Kcnq2 mRNA (glutamatergic neurons (tdTomato+)); “no significant differences” in the test on Kcnq2 mRNA (tdTomato negative cells); “significant upregulation at all time points tested” in test [1] (2, 12, 24 or 48 hours vs untreated and saline controls). Moreover, the “mRNA expression of Hspa8, Snap25, Hsp90ab1, Ndufa4, Ilf2, E2f1 and Kcnq2” value in test [1] (2, 12, 24 or 48 hours) is recorded as “significant changes”.
